# Measured values as given in US10800792B2, “Inhibitors of Bruton's tyrosine kinase and method of their use” (JANSSEN PHARMACEUTICA NV, priority 2015, dated 2020).
# Target: unphosphorylated-BTK kinase domain (UP-BTK), GST-tagged human BTK (389-659aa) (Homo sapiens (Human), UniProt Q06187)
# Test: BTK kinase Lanthascreen binding assay
# Conditions: pIC50 = negative log of the IC50 in molar; for IC50: read-out: BTK_I_binding pIC50 (converted)
# Method: BTK Kinase Lanthascreen Binding Assay:
# A BTK kinase lanthascreen binding assay monitors compound binding to unphosphorylated-BTK kinase domain (UP-BTK), by competing with a fluorescent labeled tracer. […] Data were analyzed using Xlfit™ version 5.3 from ID Business Solutions (Guildford), Microsoft Excel add-in. pIC50 refers to the negative log of the IC50 in molar
# [1] = 60 minutes incubation, 50 nM Tracer 236
# unphosphorylated-BTK kinase domain (UP-BTK), GST-tagged human BTK (389-659aa), sequence (Q06187 389-659): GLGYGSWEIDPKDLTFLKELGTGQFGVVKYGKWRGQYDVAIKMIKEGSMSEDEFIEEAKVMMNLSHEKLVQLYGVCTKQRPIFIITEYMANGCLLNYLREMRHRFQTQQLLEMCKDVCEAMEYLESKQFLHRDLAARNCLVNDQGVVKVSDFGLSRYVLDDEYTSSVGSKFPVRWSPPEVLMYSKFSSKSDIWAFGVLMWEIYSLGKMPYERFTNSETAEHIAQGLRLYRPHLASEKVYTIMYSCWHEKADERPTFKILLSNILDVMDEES
Structure (SMILES),BTK_I_binding pIC50 [1],further results
"C=CC(=O)N1C[C@@H](F)[C@@H](NC(=O)c2sc3nccc4c3c2NC(=O)N4c2ccc(Oc3ccccc3)cc2C)C1 (single isomer, unassigned) [Example 28, N-((3S,4R)-1-Acryloyl-4-fluoropyrrolidin-3-yl)-5-(*S)-(2-methyl-4-phenoxyphenyl)-4-oxo-4,5-dihydro-3H-1-thia-3,5,8-triazaacenaphthylene-2-carboxamide]",–,IC50 [1]: 12.6 nM
"Cc1cc(Oc2ccccc2)ccc1N1C(=O)Nc2c(C(=O)N[C@@H]3CCCN(C#N)C3)sc3nccc1c23 (single isomer, unassigned) [Example 35, (R)—N-(1-Cyanopiperidin-3-yl)-5-(*S)-(2-methyl-4-phenoxyphenyl)-4-oxo-4,5-dihydro-3H-1-thia-3,5,8-triazaacenaphthylene-2-carboxamide]",–,IC50 [1]: 31.6 nM
"Cc1cc(Oc2ccccc2)ccc1N1C(=O)Nc2c(C(=O)N[C@@H]3CCCN(C(=O)/C(C#N)=C/C(C)(C)N4CCOCC4)C3)sc3nccc1c23 (single isomer, unassigned) [Example 43, (R,E)-N-(1-(2-Cyano-4-methyl-4-morpholinopent-2-enoyl)piperidin-3-yl)-5-(*S)-(2-methyl-4-phenoxyphenyl)-4-oxo-4,5-dihydro-3H-1-thia-3,5,8-triazaacenaphthylene-2-carboxamide]",7.2,–
"Cc1cc(Oc2ccccc2)ccc1N1C(=O)Nc2c(C(=O)N[C@H]3CCOC3)sc3nccc1c23 (single isomer, unassigned) [Example 68, (S)-5-(*S)-(2-Methyl-4-phenoxyphenyl)-4-oxo-N-(tetrahydrofuran-3-yl)-4,5-dihydro-3H-1-thia-3,5,8-triazaacenaphthylene-2-carboxamide]",7.7,–
"Cc1cc(Oc2ccccc2)ccc1N1C(=O)Nc2c(C(=O)N[C@@H]3CCOC3)sc3nccc1c23 (single isomer, unassigned) [Example 80, (R)-5-(*S)-(2-Methyl-4-phenoxyphenyl)-4-oxo-N-(tetrahydrofuran-3-yl)-4,5-dihydro-3H-1-thia-3,5,8-triazaacenaphthylene-2-carboxamide]",7.8,–
"CCC(=O)N1CC[C@@H](NC(=O)c2sc3nccc4c3c2NC(=O)N4c2ccc(Oc3ccccc3)cc2C)C1 (single isomer, unassigned) [Example 84, (R)-5-(*S)-(2-Methyl-4-phenoxyphenyl)-4-oxo-N-(1-propionylpyrrolidin-3-yl)-4,5-dihydro-3H-1-thia-3,5,8-triazaacenaphthylene-2-carboxamide]",7.5,–
"Cc1cc(Oc2ccccc2)ccc1N1C(=O)Nc2c(C(=O)N[C@@H]3CCN(C(C)C)C3)sc3nccc1c23 (single isomer, unassigned) [Example 93, (R)—N-(1-Isopropylpyrrolidin-3-yl)-5-(*S)-(2-methyl-4-phenoxyphenyl)-4-oxo-4,5-dihydro-3H-1-thia-3,5,8-triazaacenaphthylene-2-carboxamide]",7.1,–
"Cc1cc(Oc2ccccc2)ccc1N1C(=O)Nc2c(C(=O)N[C@@H]3CCCNC3)sc3nccc1c23 (single isomer, unassigned) [Example 98, (R)-5-(*S)-(2-Methyl-4-phenoxyphenyl)-4-oxo-N-(piperidin-3-yl)-4,5-dihydro-3H-1-thia-3,5,8-triazaacenaphthylene-2-carboxamide]",7.3,–
"Cc1cc(Oc2ccccc2)ccc1N1C(=O)Nc2c(C(=O)N[C@@H]3CCCN(C(=O)CCO)C3)sc3nccc1c23 (single isomer, unassigned) [Example 99, (R)—N-(1-(3-Hydroxypropanoyl)piperidin-3-yl)-5-(*S)-(2-methyl-4-phenoxyphenyl)-4-oxo-4,5-dihydro-3H-1-thia-3,5,8-triazaacenaphthylene-2-carboxamide]",7.6,–
"Cc1cc(Oc2ccccc2)ccc1N1C(=O)Nc2c(C(=O)N[C@@H]3CCCN(C(=O)CCO)C3)sc3nccc1c23 (single isomer, unassigned) [Example 318, (R)—N-(1-(3-Hydroxypropanoyl)piperidin-3-yl)-5-(*R)-(2-methyl-4-phenoxyphenyl)-4-oxo-4,5-dihydro-3H-1-thia-3,5,8-triazaacenaphthylene-2-carboxamide]",–,"BTK_I_binding pIC50 (unphosphorylated-BTK kinase domain, 50 nM Tracer 236, 60 minutes): 5.8"

# Second part, led by results:
BTK_I_binding pIC50 [1],Structure (SMILES),further results
7.9,"C#CC(=O)N1CCC[C@@H](NC(=O)c2sc3nccc4c3c2NC(=O)N4c2ccc(Oc3ccccc3)cc2C)C1 (single isomer, unassigned) [Example 46, (R)-5-(*S)-(2-methyl-4-phenoxyphenyl)-4-oxo-N-(1-propioloylpiperidin-3-yl)-4,5-dihydro-3H-1-thia-3,5,8-triazaacenaphthylene-2-carboxamide]",–
7.2,"C=C(F)C(=O)N1CCC[C@@H](NC(=O)c2sc3nccc4c3c2NC(=O)N4c2ccc(Oc3ccccc3)cc2C)C1 (single isomer, unassigned) [Example 49, (R)—N-(1-(2-Fluoroacryloyl)piperidin-3-yl)-5-(*S)-(2-methyl-4-phenoxyphenyl)-4-oxo-4,5-dihydro-3H-1-thia-3,5,8-triazaacenaphthylene-2-carboxamide]",–
7.4,"CC#CC(=O)N1CCC[C@@H](NC(=O)c2sc3nccc4c3c2NC(=O)N4c2ccc(Oc3ccccc3)cc2C)C1 (single isomer, unassigned) [Example 55, (R)—N-(1-(But-2-ynoyl)piperidin-3-yl)-5-(*S)-(2-methyl-4-phenoxyphenyl)-4-oxo-4,5-dihydro-3H-1-thia-3,5,8-triazaacenaphthylene-2-carboxamide]",–
7.1,"C/C=C/C(=O)N1CCC[C@@H](NC(=O)c2sc3nccc4c3c2NC(=O)N4c2ccc(Oc3ccccc3)cc2C)C1 (single isomer, unassigned) [Example 100, (R,E)-N-(1-(But-2-enoyl)piperidin-3-yl)-5-(*S)-(2-methyl-4-phenoxyphenyl)-4-oxo-4,5-dihydro-3H-1-thia-3,5,8-triazaacenaphthylene-2-carboxamide]",–
7.5,"CNCC(=O)N1CCC[C@@H](NC(=O)c2sc3nccc4c3c2NC(=O)N4c2ccc(Oc3ccccc3)cc2C)C1 (single isomer, unassigned) [Example 183, (R)-5-(*S)-(2-Methyl-4-phenoxyphenyl)-N-(1-(2-(methylamino)acetyl)piperidin-3-yl)-4-oxo-4,5-dihydro-3H-1-thia-3,5,8-triazaacenaphthylene-2-carboxamide]",–
7.4,"CCC(=O)N1CCC[C@@H](NC(=O)c2sc3nccc4c3c2NC(=O)N4c2ccc(Oc3ccccc3)cc2C)C1 (single isomer, unassigned) [Example 184, (R)-5-(*S)-(2-Methyl-4-phenoxyphenyl)-4-oxo-N-(1-propionylpiperidin-3-yl)-4,5-dihydro-3H-1-thia-3,5,8-triazaacenaphthylene-2-carboxamide]",–
6.2,"CNCC(=O)N1CCC[C@@H](NC(=O)c2sc3nccc4c3c2NC(=O)N4c2ccc(Oc3ccccc3)cc2C)C1 (single isomer, unassigned) [Example 253, (R)-5-(*R)-(2-Methyl-4-phenoxyphenyl)-N-(1-(2-(methylamino)acetyl)piperidin-3-yl)-4-oxo-4,5-dihydro-3H-1-thia-3,5,8-triazaacenaphthylene-2-carboxamide]",–
